Reference: patent US20160370380A1, “COMBINATORIAL ANTIBODY DIAGNOSTIC” (PharmaSeq, Inc., priority 2015, published 2016)

Legend:
anti-HA antibody [1] = test: anti-HA antibody binding assay on MTP-bound peptides (fluorescence, SAPE detection)
anti-HA antibody [2] = test: HA competitive binding: free peptide in solution competes with […] on MTPs for the anti-HA antibody; conditions: for competitive activity against YPYDVPDYA peptide on MTPs for anti-HA antibody: free peptide with spacer GG in solution, FIG. 3

Row | Substance | assay signal (binding to anti-HA antibody) in screen of random 4-aa peptide library (anti-HA antibody [1]; 5,307 random 4-aa peptides on MTPs, 10 ug/mL biotinylated anti-HA monoclonal antibody, fluorescence at 532 nm) | competitive activity against YPYDVPDYA peptide on MTPs for anti-HA antibody (anti-HA antibody [2]) | binding affinity to the anti-HA antibody (conclusion from competition and screen) (anti-HA antibody [2]; taken together from results of FIG. 3 and screen) | recognition by / affinity to anti-HA antibody in HA peptide assay (anti-HA antibody [1]; […], QC control group vial #9, data not shown)
1 | HKRK | very low binding | no competitive activity | – | –
2 | YHYY | – | competed well | high binding affinity | –
3 | YPYDVPDYA | – | reduced assay signal | – | specifically recognized by anti-HA antibody
